Test results as given in patent US20260130933A1, “PHARMACEUTICAL COMPOSITION FOR PREVENTION OR TREATMENT OF NEPHROPATHY AND/OR DIABETES MELLITUS, COMPRISING ENAVOGLIFLOZIN” (DAEWOONG PHARMACEUTICAL CO., LTD., priority 2022, published 2026).

Experiments:
[1] = Example 6: phase 1 trial, 0.5 mg enavogliflozin in type 2 diabetes patients grouped by eGFR: urinary glucose excretion (UGE) and eGFR; type: in vivo, human
Description: The subjects were divided into the following four groups according to eGFR values, and urinary glucose excretion (UGE) and eGFR were estimated according to the administration of 0.5 mg of enavogliflozin as the test drug (stages 1 and 3: repeated administration (1 week), stages 2 and 4: single administration).

[2] = Example 7: SD rats treated with streptozotocin (diabetic nephropathy model), oral once a day for 12 weeks: urinary albumin, GS score, TA score; type: in vivo
Description: Accordingly, 60 mg/kg of streptozotocin was administered intravenously to the SD rats and used as an animal model of diabetic nephropathy.

[3] = Phase 2 clinical trial, blood glucose lowering vs placebo; type: in vivo, human; conditions: 0.1 mg, 0.3 mg and 0.5 mg groups
[4] = Pharmacokinetics (Tmax); type: in vivo; conditions: blood, oral
[5] = Dissolution test method 2 of the Korean Pharmacopoeia (paddle method); type: physicochemical; conditions: average particle size greater than 15 μm
Description: The dissolution rate of the active ingredient in the pharmaceutical composition affects the maximum blood concentration (Cmax) and the blood concentration-area under the blood concentration-time curve (AUC) when administering the drug, that is to say, in order to achieve appropriate Cmax and AUC, it is important to adjust the dissolution rate of the pharmaceutical composition. […] The above dissolution rate was measured under the condition of the dissolved solution 1.2 in accordance of the dissolution test method 2 of the Korean Pharmacopoeia (paddle method). For specific conditions, refer to the following experimental examples.

## OC[C@H]1O[C@@H](c2cc(Cc3ccc(C4CC4)cc3)c(Cl)c3c2CCO3)[C@H](O)[C@@H](O)[C@@H]1O [Enavogliflozin, (2S,3R,4R,5S,6R)-2-(7-chloro-6 (4-cyclopropylbenzyl)-2,3-dihydrobenzofuran-4-yl)-6-(hydroxymethyl)tetrahydro-2H-pyran-3,4,5-triol]
[1]; all renal function groups
  Urinary glucose excretion (UGE) after administration: increased
[1]; patient group with 30≤eGFR<60
  Change in eGFR: eGFR reduction was confirmed
[2]; same dose groups (1 mg/kg)
  Reduction of proteinuria compared with other SGLT2 inhibitors: most excellent effect in reducing proteinuria
[2]; week 12
  TA score (tubular atrophy): significant dose-dependent decrease in tubular atrophy
[2]; week 12, all enavogliflozin-administered groups
  GS score (glomerulosclerosis): trend toward a decrease in the GS score
[2]; weeks 4, 8 and 12
  Urinary albumin concentration (proteinuria): dose-dependent decrease in proteinuria
[3]
  Blood glucose-lowering effect compared to a placebo: statistically significant blood glucose-lowering effect
[4]
  Tmax: 1 to 2 h
[5]
  5-minute dissolution rate: less than 40%
  30-minute dissolution rate: less than 80%
